PubChem BioAssay (NCI)
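How tested: cells in 96-well plates exposed to compound for 48 hours at five concentrations. GI50 marks 50% less growth. The concentration for full growth arrest is given as TGI.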

Tests used:
Experiment in all cases: NCI anticancer screen, dose series, 48 h
[1] = tested on: A549 NSCLC
[2] = tested on: SK-OV-3 ovarian
[3] = tested on: OVCAR-8 ovarian
[4] = tested on: SR leukemia
[5] = tested on: HOP-62 NSCLC
[6] = tested on: HCC-2998 colon
[7] = tested on: HCT-15 colon
[8] = tested on: COLO 205 colon
[9] = tested on: NCI-H460 lung
[10] = tested on: CCRF-CEM leukemia

Q: Which results are given for `COc1ccc(Cn2cc3c(c2-c2ccccc2)CCc2cnoc2-3)cc1OC`?
A: GI50 [1]: 0.875 µM; TGI [1]: > 100 µM; GI50 [2]: 1.48 µM; TGI [2]: > 100 µM; GI50 [3]: 3.48 µM; TGI [3]: > 100 µM; GI50 [4]: 353 nM; TGI [4]: > 100 µM; GI50 [5]: 1.34 µM; TGI [5]: > 100 µM; GI50 [6]: 2.19 µM; TGI [6]: > 100 µM; GI50 [7]: 522 nM; TGI [7]: > 100 µM; GI50 [8]: 550 nM; TGI [8]: 3.81 µM; GI50 [9]: 0.457 µM; TGI [9]: > 100 µM; GI50 [10]: 1780 nM; TGI [10]: > 100 µM

Q: How did the TGI [1] turn out when `C[C@@H]1CCC([C@@H](C)[C@H]2CC[C@H]3[C@@H]4CC[C@H]5C[C@@H](O)CC[C@]5(C)[C@H]4CC[C@]23C)=NC1` was run?
A: > 100 µM

Q: What about the TGI [2] of the same molecule?
A: > 100 µM

Q: And the TGI [3]?
A: > 100 µM

Q: What about the TGI [4] of the same molecule?
A: > 100 µM

Q: And the TGI [5]?
A: > 51.3 µM

Q: What about the TGI [6] of the same molecule?
A: 55.4 µM

Q: What about the TGI [7] of the same molecule?
A: 44.8 µM

Q: And the TGI [8]?
A: > 53.2 µM

Q: And the TGI [9]?
A: 48.9 µM

Q: And the TGI [10]?
A: > 100 µM

Q: How did the GI50 [1] turn out when `CCCCCCCCC/C(=N\NC(=O)c1ccncc1)c1ccc(O)c(O)c1O` was run?
A: 0.302 µM

Q: What about the TGI [1] of the same molecule?
A: > 100 µM

Q: And the GI50 [2]?
A: 0.246 µM

Q: And the TGI [2]?
A: > 100 µM

Q: What about the GI50 [3] of the same molecule?
A: 0.179 µM

Q: And the TGI [3]?
A: > 100 µM

Q: What about the GI50 [4] of the same molecule?
A: 57.6 nM

Q: What about the TGI [4] of the same molecule?
A: 24.4 µM

Q: And the GI50 [5]?
A: 0.09 µM

Q: What about the TGI [5] of the same molecule?
A: 16 µM

Q: And the GI50 [6]?
A: 0.199 µM

Q: And the TGI [6]?
A: > 36.6 µM

Q: And the GI50 [7]?
A: 63.5 nM

Q: What about the TGI [7] of the same molecule?
A: > 100 µM

Q: And the GI50 [8]?
A: 617 nM

Q: And the TGI [8]?
A: 17.4 µM

Q: And the GI50 [9]?
A: 0.0705 µM

Q: What about the TGI [9] of the same molecule?
A: 1.1 µM

Q: What about the GI50 [10] of the same molecule?
A: 42.6 nM

Q: And the TGI [10]?
A: 3.63 µM

Q: Which results are given for `O=C1[C@@H]2C(c3ccccc3[N+](=O)[O-])=[N+](c3ccccc3)O[C@@H]2C(=O)N1c1ccc(Cc2ccc(N3C(=O)[C@H]4C(c5ccccc5[N+](=O)[O-])=[N+](c5ccccc5)O[C@H]4C3=O)cc2)cc1`?
A: TGI [1]: > 100 µM; TGI [2]: > 100 µM; TGI [3]: > 100 µM; TGI [4]: > 100 µM; TGI [5]: > 100 µM; TGI [6]: > 100 µM; TGI [7]: > 100 µM; TGI [8]: > 100 µM; TGI [9]: > 100 µM; TGI [10]: > 100 µM

Q: What does the source list for `O=C1C=CC(=O)c2c1ccc1c3ccccc3n(-c3ccccc3)c21`?
A: TGI [1]: 44.2 µM; TGI [2]: 39.3 µM; TGI [3]: 11 µM; TGI [4]: 1.31 µM; TGI [5]: 37.7 µM; TGI [6]: 50.6 µM; TGI [7]: 10.7 µM; TGI [8]: 22.8 µM; TGI [9]: 34.6 µM; TGI [10]: 1.94 µM

Q: Which GI50 [1] does the source give for `COc1ccc(Nc2cc(C)nc(NCc3ccccc3)n2)cc1` here?
A: 6.53 µM

Q: What about the TGI [1] of the same molecule?
A: 24.7 µM

Q: What about the GI50 [2] of the same molecule?
A: 8.84 µM

Q: And the TGI [2]?
A: 23.8 µM

Q: What about the GI50 [3] of the same molecule?
A: 6.71 µM

Q: What about the TGI [3] of the same molecule?
A: 35.2 µM

Q: What about the GI50 [4] of the same molecule?
A: 3320 nM

Q: What about the TGI [4] of the same molecule?
A: 13 µM

Q: And the GI50 [5]?
A: 9.92 µM

Q: What about the TGI [5] of the same molecule?
A: 24.9 µM

Q: And the GI50 [6]?
A: 2.02 µM

Q: What about the TGI [6] of the same molecule?
A: 4.04 µM

Q: And the GI50 [7]?
A: 2800 nM

Q: And the TGI [7]?
A: 11.9 µM

Q: And the GI50 [8]?
A: 2080 nM

Q: And the TGI [8]?
A: 4.4 µM

Q: And the GI50 [9]?
A: 4.09 µM

Q: And the TGI [9]?
A: 17.6 µM

Q: And the GI50 [10]?
A: 3060 nM

Q: What about the TGI [10] of the same molecule?
A: 23.7 µM

Q: Which GI50 [1] does the source give for `C[C@]12CC[C@@H]3c4cc(O)c(O)cc4CC[C@H]3[C@@H]1CC[C@@H]2O` here?
A: 7.16 µM

Q: What about the TGI [1] of the same molecule?
A: > 82.4 µM

Q: What about the GI50 [2] of the same molecule?
A: 4.19 µM

Q: What about the TGI [2] of the same molecule?
A: 61.8 µM

Q: What about the GI50 [3] of the same molecule?
A: 6.89 µM

Q: And the TGI [3]?
A: > 100 µM

Q: What about the GI50 [4] of the same molecule?
A: 576 nM

Q: What about the TGI [4] of the same molecule?
A: 48.5 µM

Q: What about the GI50 [5] of the same molecule?
A: 4.08 µM

Q: And the TGI [5]?
A: 54.6 µM

Q: And the GI50 [6]?
A: 11.2 µM

Q: What about the TGI [6] of the same molecule?
A: 41.8 µM

Q: What about the GI50 [7] of the same molecule?
A: 877 nM

Q: What about the TGI [7] of the same molecule?
A: 24.8 µM

Q: And the GI50 [8]?
A: 28900 nM

Q: And the TGI [8]?
A: > 73.3 µM

Q: And the GI50 [9]?
A: 3.75 µM

Q: What about the TGI [9] of the same molecule?
A: 18.1 µM

Q: What about the GI50 [10] of the same molecule?
A: 1670 nM

Q: What about the TGI [10] of the same molecule?
A: 20.2 µM

Q: Which results are given for `C=C1C(=O)O[C@H]2C[C@@H]1CC/C(C)=C/CC/C(C)=C/CC[C@@]2(C)O`?
A: GI50 [1]: > 100 µM; TGI [1]: > 100 µM; GI50 [2]: > 100 µM; TGI [2]: > 100 µM; GI50 [3]: 81.2 µM; TGI [3]: > 100 µM; GI50 [4]: 26500 nM; TGI [4]: 63.6 µM; GI50 [5]: > 100 µM; TGI [5]: > 100 µM; GI50 [6]: 24.1 µM; TGI [6]: 74.9 µM; GI50 [7]: 26400 nM; TGI [7]: 71.6 µM; GI50 [8]: 44200 nM; TGI [8]: > 100 µM; GI50 [9]: > 100 µM; TGI [9]: > 100 µM; GI50 [10]: 16500 nM; TGI [10]: 38.9 µM

Q: Which results are given for `COc1cccc(/C=N/NC(=O)c2ccccc2N2CCCC2)c1O`?
A: GI50 [1]: 18.8 µM; TGI [1]: > 100 µM; GI50 [2]: 4.9 µM; TGI [2]: 90.6 µM; GI50 [3]: 5.49 µM; TGI [3]: > 100 µM; GI50 [4]: 4200 nM; TGI [4]: > 100 µM; GI50 [5]: 3.58 µM; TGI [5]: > 100 µM; GI50 [6]: 47 µM; TGI [6]: > 100 µM; GI50 [7]: 1760 nM; TGI [7]: > 100 µM; GI50 [8]: 3030 nM; TGI [8]: > 100 µM; GI50 [9]: 3.25 µM; TGI [9]: 52 µM; GI50 [10]: 712 nM; TGI [10]: > 100 µM

Q: `CCOC(=O)NC/C=C/COC1CCCCO1` (centres undefined) was tested. Which TGI [1] did it give?
A: > 100 µM

Q: What about the TGI [2] of the same molecule?
A: > 100 µM

Q: And the TGI [3]?
A: > 100 µM

Q: What about the TGI [4] of the same molecule?
A: > 100 µM

Q: And the TGI [5]?
A: > 100 µM

Q: And the TGI [6]?
A: > 100 µM

Q: What about the TGI [7] of the same molecule?
A: > 100 µM

Q: What about the TGI [8] of the same molecule?
A: > 100 µM

Q: What about the TGI [9] of the same molecule?
A: > 100 µM

Q: What about the TGI [10] of the same molecule?
A: > 100 µM

Q: Which results are given for `Nc1nc(Cl)cc(NCC(O)CO)n1` (centres undefined)?
A: TGI [1]: > 100 µM; TGI [2]: > 100 µM; TGI [3]: > 100 µM; TGI [4]: > 100 µM; TGI [5]: > 100 µM; TGI [6]: > 100 µM; TGI [7]: > 100 µM; TGI [8]: > 100 µM; TGI [9]: > 100 µM; TGI [10]: > 100 µM

Q: With `O=C(OC1CCC2OOC1O2)c1ccc([N+](=O)[O-])cc1` (centres undefined) as the molecule, how does the TGI [1] read?
A: > 100 µM

Q: And the TGI [2]?
A: > 100 µM

Q: And the TGI [3]?
A: > 100 µM

Q: And the TGI [4]?
A: > 100 µM

Q: What about the TGI [5] of the same molecule?
A: > 100 µM

Q: What about the TGI [6] of the same molecule?
A: > 100 µM

Q: What about the TGI [7] of the same molecule?
A: > 100 µM

Q: And the TGI [8]?
A: > 100 µM

Q: What about the TGI [9] of the same molecule?
A: > 100 µM

Q: And the TGI [10]?
A: > 100 µM

Q: Which GI50 [1] does the source give for `[Cl][Hg][c]1ccc(Cl)s1` here?
A: 18.7 µM

Q: What about the TGI [1] of the same molecule?
A: 60.9 µM

Q: What about the GI50 [2] of the same molecule?
A: 13.6 µM

Q: What about the TGI [2] of the same molecule?
A: 26.8 µM

Q: What about the GI50 [3] of the same molecule?
A: 2.51 µM

Q: What about the TGI [3] of the same molecule?
A: 6.25 µM

Q: And the GI50 [4]?
A: 319 nM

Q: What about the GI50 [5] of the same molecule?
A: 4.29 µM

Q: What about the TGI [5] of the same molecule?
A: 21.8 µM

Q: What about the GI50 [6] of the same molecule?
A: 11.9 µM

Q: What about the TGI [6] of the same molecule?
A: 26.4 µM

Q: What about the GI50 [7] of the same molecule?
A: 397 nM

Q: What about the TGI [7] of the same molecule?
A: 1.72 µM

Q: And the GI50 [8]?
A: 1390 nM

Q: What about the TGI [8] of the same molecule?
A: 2.9 µM

Q: What about the GI50 [9] of the same molecule?
A: 8.9 µM

Q: And the TGI [9]?
A: 35.7 µM

Q: What about the GI50 [10] of the same molecule?
A: 326 nM

Q: And the TGI [10]?
A: 3.99 µM

Q: Which results are given for `CCC(O)C1Cc2c(C)cc3c(c2O1)C(=O)c1ccccc1C3=O` (centres undefined)?
A: TGI [1]: > 100 µM; TGI [2]: 89.4 µM; TGI [3]: > 100 µM; TGI [4]: > 100 µM; TGI [5]: > 100 µM; TGI [6]: > 100 µM; TGI [7]: > 100 µM; TGI [8]: 33.1 µM; TGI [9]: > 100 µM; TGI [10]: > 100 µM

Q: With `CC1(C)CC[C@]2(C(=O)O)CC[C@]3(C)C(=CC[C@@H]4[C@@]5(C)C[C@H](O)[C@H](O)[C@@](C)(C(=O)O)[C@@H]5CC[C@]43C)[C@@H]2C1` as the molecule, how does the TGI [1] read?
A: > 100 µM

Q: What about the TGI [2] of the same molecule?
A: > 100 µM

Q: What about the TGI [3] of the same molecule?
A: > 100 µM

Q: And the TGI [4]?
A: > 100 µM

Q: What about the TGI [5] of the same molecule?
A: > 100 µM

Q: And the TGI [6]?
A: > 100 µM

Q: And the TGI [7]?
A: > 100 µM

Q: And the TGI [8]?
A: > 100 µM

Q: What about the TGI [9] of the same molecule?
A: > 100 µM

Q: What about the TGI [10] of the same molecule?
A: > 100 µM
